Experimental data: patent US7776873B2, “Method for treating damage to gastric mucosa” (Yuhan Corporation, priority 2005, dated 2010)

Key:
[1] = system: indomethacin-induced gastric mucosal lesions; assay: Preventive effect on in vivo indomethacin-induced gastric injury; design: species or system Sprague-Dawley male rats; conditions: rats, 10 mg/kg via oro-gastric tube prior to indomethacin 40 mg/kg for 12 hrs, FIG. 3A
From the text: Six-week old specific-pathogen-free (SPF) Sprague-Dawley male rats (Charles River, Tokyo, Japan) were used for experiments. The rats were fed a sterilized commercial pellet diet (Biogenomics Co., Seoul, Korea), given sterile water ad libitum, and housed in air-conditioned biohazard room with a 12-h light:12-h dark cycle. The rats were divided into four groups; indomethacin-only treatment group, revaprazan-indomethacin treatment group, ethanol-only treatment group and revaprazan-ethanol treatment group. The rats were food-deprived 24 hours, and then administered with 10 mg/kg revaprazan suspended in 0.5% CMC (carboxymethylcellulose) via oro-gastric tube prior to exposure to either indomethacin (40 mg/kg for 12 hrs) or absolute ethanol (6 ml/kg for 1 hr). The stomachs of the rats belonging to the groups treated with indomethacin were excised and the degree of gastric mucosal lesions was observed (see FIG. 3A). Referring to FIG. 3A, in the indomethacin-only treatment group, increased hemorrhagic lesions in gastric mucosa were observed visually. […] Also, the stomachs of the rats belonging to the ethanol treatment groups were excised and the degree of gastric mucosal lesions was observed (see FIG. 3B).

[2] = system: NF-kB (nuclear factor-kappa B); assay: DNA binding activity of NF-kB after H. pylori infection (EMSA); assay type: cell-based, human; conditions: FIG. 5
Experimental: The DNA binding activity of NF-kB (nuclear factor-kappa B), a redox-sensitive transcription factor known to be associated with H. pylori infection was evaluated using EMSA. Rebamipide (50 μM), known to have cytoprotective properties, was used as a control drug, and revaprazan (25 μM) was used as a test drug. The human gastric epithelial (AGS, KCLB 21739) cells were seeded in culture dishes at 2×10^6 cells/100 mm^2 and cultured in RPMI 1640 (Gibco BRL, Grand Island, N.Y., U.S.A.), supplemented with 100 units/mL penicillin, 100 ug/mL streptomycin, and 10% FBS (Fetal Bovine Serum). […] The culture media were removed and the cells were twice washed with PBS (137 mM NaCl, 2.7 mM KCl, 10 mM Na2HPO4, and 2 mM KH2PO4). For inoculation, H. pylori (ATCC 43504) cultures were resuspended in PBS and cocultured with AGS cells at a final concentration of 5×10^8 CFU/ml at 37° C. for one hour. The nuclear fractions for EMSA were prepared using the NE-PER Nuclear and the Cytoplasmic Extraction Kit (Pierce, Rockford, Ill., U.S.A.). Sequences of double-stranded oligonucleotides used for EMSA of NF-kB were as follows; [NT], and the oligonucleotides were labeled with a Biotin 3' End DNA Labeling Kit (Pierce, Rockford, Ill., U.S.A.). The EMSA was performed with a Light Shift Chemiluminescent EMSA Kit (Pierce, Rockford, Ill., U.S.A.).

[3] = system: VEGF (Vascular Endothelial Growth Factor); assay: Expression level of VEGF in sulindac-treated cells (RT-PCR); assay type: cell-based, rat; conditions: RGM-1 cells, revaprazan 25 uM (rebamipide 50 uM) 16 hours, then sulindac 100 uM 8 hours, FIG. 6
Experimental: In order to evaluate cytoprotective effect of revaprazan, 100 μM of sulindac belonging to NSAIDs was added to the rat cells, and the expression levels of pro-angiogenic growth factors, VEGF (Vascular Endothelial Growth Factor), interleukin-8 (IL-8), and COX-2 (cyclooxygenase-2) were measured. Rebamipide (50 μM), known to have cytoprotective properties, was used as a control drug and revaprazan (25 μM) was used as a test drug. The rat gastric mucosal (RGM-1, RIKEN cell bank, Japan) cells were seeded in culture dishes at 2×10^6 cells/100 mm^2 and cultured in RPMI 1640 (Gibco BRL, Grand Island, N.Y., U.S.A.), supplemented with 100 units/mL penicillin, 100 ug/mL streptomycin, and 10% FBS (Fetal Bovine Serum). […] The culture media were removed and the cells were washed three times with PBS (137 mM NaCl, 2.7 mM KCl, 10 mM Na2HPO4, and 2 mM KH2PO4). A solution of sulindac in DMSO was added to the cells to reach a final concentration of 100 uM and the cells were cultured at 37° C. for 8 hours. The cultured cells were collected by centrifugation at 23° C. at 3000 rpm for 3 minutes, and the total RNA was isolated from the cells using the TRIzol reagent (Life technologies, Milan, Italy). Sterilized RNase-free water was added to 2 μg of the total RNA and 1 μl of 10 pmol/λ oligo dT to obtain reaction solutions with a volume of 34 μl. […]

[4] = system: indomethacin-induced gastric mucosal lesions; assay: Preventive effect on NSAID-induced gastropathy; assay type: in vivo, Sprague Dawley male rats; conditions: rats, oro-gastric pretreatment (revaprazan 5, 10 mg/kg; rebamipide 30 mg/kg; omeprazole 5 mg/kg) prior to indomethacin 40 mg/kg for 12 hrs, FIG. 8
Experimental: Six-week old specific-pathogen-free (SPF) Sprague Dawley male rats (Charles River, Tokyo, Japan) were used for experiments. The rats were fed a sterilized commercial pellet diet (Biogenomics Co., Seoul, Korea), given sterile water ad libitum, and housed in air-conditioned biohazard room with a 12-h light:12-h dark cycle. The rats were food-deprived 24 hours, and then administered with 5, 10 mg/kg revaprazan, 30 mg/kg rebamipide and 5 mg/kg omeprazole suspended in 0.5% CMC (carboxymethylcellulose) via oro-gastric tube prior to exposure to indomethacin (40 mg/kg for 12 hrs). Phosphate-buffered saline was perfused into the gastric lumen of the rats to swell the stomachs. Then, the stomachs were opened by an incision along the greater curvature, and the total area of the gastric mucosal lesions was calculated to obtain the average size of the lesions.

Cc1nc(Nc2ccc(F)cc2)nc(N2CCc3ccccc3C2C)c1C (centres unmarked) [revaprazan, 5,6-dimethyl-2-(4-fluorophenylamino)-4-(1-methyl-1,2,3,4-tetrahydroisoquinolin-2-yl)pyrimidine]
indomethacin-induced gastric injury [1]: completely inhibited | NF-kB activity (DNA binding) ([2]; AGS cells, 25 uM pretreatment for 16 hours, then H. pylori one hour): significantly inhibited | cytoprotective effect (NF-kB inhibition) compared with rebamipide ([2]; revaprazan 25 uM vs rebamipide 50 uM): equal to or greater than rebamipide | expression level of VEGF versus rebamipide-sulindac treatment group [3]: much higher | hemorrhagic gastric mucosal lesions after pretreatment [4]: little hemorrhagic lesions are observed
